We go through 26 molecules from US6066642A, “Dihydropyridine-, pyridine-, benzopyran-4-one- and triazoloquinazoline derivative, their preparation and their use as adenosine receptor antagonists” (priority 1998, dated 2000).

Where two headings read alike, the source gives them in different places.

One assay addresses T1, A1 receptors (Rattus norvegicus, UniProt P25099).
T1 sequence (P25099 1-326): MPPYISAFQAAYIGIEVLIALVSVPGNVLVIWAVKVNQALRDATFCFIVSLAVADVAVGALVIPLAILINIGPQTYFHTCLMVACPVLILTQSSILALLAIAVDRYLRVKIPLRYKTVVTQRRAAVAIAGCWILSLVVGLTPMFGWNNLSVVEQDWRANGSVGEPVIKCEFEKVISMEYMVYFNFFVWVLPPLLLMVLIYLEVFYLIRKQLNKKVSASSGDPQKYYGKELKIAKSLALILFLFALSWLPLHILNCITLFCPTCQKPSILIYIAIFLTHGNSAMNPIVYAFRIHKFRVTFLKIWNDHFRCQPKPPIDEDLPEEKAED
Put plainly: biochemical. The format is binding. To be noted: for inhibition at 100 µM: 10^-4 M, read-out: displacement of specific binding rA1.

The target in the next assay is T2, human A3 receptors (Homo sapiens, UniProt P0DMS8).
T2 construct: expressed in transfected cells; host or cells: HEK-293 cells (membranes)
T2 sequence (P0DMS8 1-318): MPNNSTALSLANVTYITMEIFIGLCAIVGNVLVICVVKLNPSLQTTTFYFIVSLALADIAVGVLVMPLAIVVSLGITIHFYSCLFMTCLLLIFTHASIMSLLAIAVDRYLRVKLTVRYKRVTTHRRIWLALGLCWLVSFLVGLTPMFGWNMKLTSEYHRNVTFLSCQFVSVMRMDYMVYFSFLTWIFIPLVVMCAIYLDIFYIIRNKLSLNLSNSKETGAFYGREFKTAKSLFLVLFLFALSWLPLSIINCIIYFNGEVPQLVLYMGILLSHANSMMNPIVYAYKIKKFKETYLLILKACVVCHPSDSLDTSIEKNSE
Put plainly: radioligand binding, displacement of specific [125I]AB-MECA binding at human A3 receptors expressed in HEK-293 cells. Particulars: for Ki: [125I]AB-MECA; for inhibition at 100 µM: 10^-4 M; for inhibition at 10 µM: 10^-5 M.

In a further assay the target is T3, A2a receptors (Rattus norvegicus, UniProt P30543).
T3 construct: Displacement of specific [^3 H]; from tissue; host or cells: rat striatal membranes
T3 sequence (P30543 whole entry): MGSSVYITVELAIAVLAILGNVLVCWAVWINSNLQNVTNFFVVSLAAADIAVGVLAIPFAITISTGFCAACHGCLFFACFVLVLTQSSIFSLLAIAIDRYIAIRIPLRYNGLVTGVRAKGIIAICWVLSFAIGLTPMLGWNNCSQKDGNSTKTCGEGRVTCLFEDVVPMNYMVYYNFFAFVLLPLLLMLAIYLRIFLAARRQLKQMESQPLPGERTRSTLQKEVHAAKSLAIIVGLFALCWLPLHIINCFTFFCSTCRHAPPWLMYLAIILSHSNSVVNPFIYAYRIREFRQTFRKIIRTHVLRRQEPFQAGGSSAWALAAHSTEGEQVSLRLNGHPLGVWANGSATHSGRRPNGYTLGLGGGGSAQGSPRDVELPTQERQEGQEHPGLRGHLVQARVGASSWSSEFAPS
Put plainly: radioligand binding, displacement of specific [3H]CGS 21680 binding in rat striatal membranes. Particulars: for inhibition at 100 µM: 10^-4 M.

Setting [1] is: Table 5, HEK-293 membranes, read-out: Ki hA3.
Where [2] appears, read: Table 5, [3H]CGS 21680, rat striatal membranes, read-out: Ki rA2a.
The mark [3] stands for this setting: Table 5, read-out: displacement of specific binding rA2a.
Where [4] appears, read: Table 6, [3H]PIA, rat brain membranes, read-out: K2 (rA1).
[5] abbreviates: Table 6, read-out: % inhibition hA3.
Setting [6] is: striatal membranes, read-out: K2 (rA2a).
[7] abbreviates: Table 6, [3H]CGS 21680, rat striatal membranes, read-out: K2 (rA2a).
Setting [8] is: Table 6, HEK-293 membranes, read-out: K2 (hA3).
[9] abbreviates: Table 7, [3H]PIA, rat brain membranes, read-out: Ki (rA1).
Setting [10] is: Table 7, read-out: % of specific binding displaced hA3.
Setting [11] is: Table 7, [3H]CGS 21680, rat striatal membranes, read-out: Ki (rA2A).
Where [12] appears, read: Table 7, read-out: displacement of specific binding rA2A.
[13] abbreviates: Table 7, read-out: displacement of specific binding hA3.

Procedure for A1 receptors: ^a Displacement of specific [^3 H] PIA binding in rat brain
percentage of specific binding displaced at 100 μM.
Procedure for A2a receptors: ^b Displacement of specific [^3 H]
or as a percentage of specific binding displaced at 100 μM.
Procedure for human A3 receptors: A3 receptors expressed in HEK293 cells, in membranes, expressed as
binding displaced at 100 μM.

`COc1ccc2oc(C#Cc3ccccc3)c(O)c(=O)c2c1` [Compound 10, 2-phenylacetylenyl-3-hydroxy-6-methoxyflavone]: the inhibition at 100 µM at A1 receptors (Table 3) is less than 10%; on A2a receptors (Table 3, read-out: displacement of specific binding rA2a), less than 10%. For the same molecule, the rA1/hA3 at human A3 receptors is on record as more than 8.

On to `COc1c2ccoc2cc2oc(C=O)cc(=O)c12` [Compound 18, 4-Methoxy-7-formyl-5H-furo [3,2-g][1]-benzopyrano-5-one], for which the inhibition at 100 µM on A1 receptors (Table 5) is less than 10%; on A2a receptors (Table 5, read-out: % of specific binding displaced rA2a), 25 ± 8%. The Ki at human A3 receptors (setting [1]) worked out at 88.9 ± 27.1 µM. At human A3 receptors (Table 5, ratio of Ki), the rA1/hA3 is on record as more than 2.

On to `COc1c2ccoc2cc2oc(/C=C/c3ccccc3)cc(=O)c12` [Compound 19, 4-methyloxy-7-trans-styryl-visnagin], for which the Ki at A1 receptors (Table 5, [3H]PIA, rat brain membranes, read-out: Ki rA1) was determined as 32.6 ± 10.5 µM; at human A3 receptors (setting [1]) it was 8.28 ± 2.69 µM; on A2a receptors (setting [2]) it was 11.5 ± 1.3 µM. Moreover, on human A3 receptors (Table 5, ratio of Ki), the rA1/hA3 is on record as 0.37.

With `COc1c2ccoc2cc2oc(/C=C/C=Cc3ccccc3)cc(=O)c12` [Compound 22, 4-methoxy-7-phenylbutadienyl visnagin], the inhibition at 100 µM was less than 10% on A1 receptors (Table 5); less than 10% on human A3 receptors (Table 5, read-out: displacement of specific binding hA3); less than 10% on A2a receptors (setting [3]).

As to `CCOc1c2ccoc2cc2oc(/C=C/C=Cc3ccccc3)cc(=O)c12` [Compound 23, 4-ethoxy-7-phenylbutadienyl visnagin], the inhibition at 100 µM at A1 receptors (Table 5) is less than 10%. Moreover, at human A3 receptors (Table 5, ratio of Ki), the rA1/hA3 is more than 4. The Ki on A2a receptors (setting [2]) is 167 µM.

As to `COc1c2ccoc2cc2oc(C=Nc3ccccc3)cc(=O)c12` [Compound 24, 4-methoxy-7-(CH=N-phenyl)visnagin], the inhibition at 100 µM at A1 receptors (Table 5) and on A2a receptors (setting [3]) was less than 10% each time. At human A3 receptors (Table 5, ratio of Ki), the rA1/hA3 is reported as more than 20.

Consider `O=c1cc(-c2ccccc2)oc2cc(O)ccc12` [Compound 26, reference compound], for which the Ki came to 3.03 ± 0.49 µM at A1 receptors (setting [4]) and 2.68 ± 0.68 µM on A2a receptors (setting [6]). Further, the inhibition at 100 µM at human A3 receptors (setting [5]) stood at 41 ± 7%.

Consider `COc1ccc(-c2cc(=O)c3ccc(O)cc3o2)cc1OC` [Compound 27, reference compound], for which the Ki on A1 receptors (setting [4]) was found to be 18.8 ± 3.6 µM; at A2a receptors (setting [7]) it was 35.4 ± 7.3 µM. The inhibition at 100 µM at human A3 receptors (setting [5]) came to 32 ± 4%.

Take `O=c1cc(-c2ccc(O)cc2)oc2cc(O)cc(O)c12` [Compound 28, apigenin, reference compound]: the results for the Ki on A1 receptors (setting [4]) and on A2a receptors (setting [7]) were 3 ± 0.29 µM and 7.58 ± 1.23 µM, respectively. Moreover, the inhibition at 10 µM at human A3 receptors (setting [5]) worked out at 63 ± 1%.

Regarding `COc1ccc(-c2cc(=O)c3c(O)cc(C)cc3o2)cc1` [Compound 29, reference compound], the Ki at A1 receptors (brain membranes, read-out: K2 (rA1)) stood at 3.4 ± 0.35 µM; at human A3 receptors (setting [8]), 6.7 ± 1.78 µM; at A2a receptors (setting [7]), 28 ± 7.35 µM.

For the molecule `COc1ccc(-c2cc(=O)c3c(O)cc(OC)cc3o2)cc1` [Compound 30, reference compound], the inhibition at 100 µM on A1 receptors (Table 6) was less than 10%; on A2a receptors (Table 6, read-out: displacement of specific binding rA2a), less than 10%. In addition, the inhibition at 10 µM at human A3 receptors (setting [5]) was 69 ± 7%.

On to `COc1c(O)cc2oc(-c3ccc(O)cc3)cc(=O)c2c1O` [Compound 32, hispidulin, reference compound], for which the Ki on A1 receptors (setting [4]) was determined as 1.61 ± 0.29 µM; at A2a receptors (setting [6]), 6.48 ± 0.65 µM. The inhibition at 10 µM on human A3 receptors (setting [5]) worked out at 63 ± 2%.

In the case of `COc1cc2oc(-c3ccc(O)cc3)cc(=O)c2c(O)c1OC` [Compound 33, cirsimaritin, reference compound], the Ki on A1 receptors (setting [4]) came to 1.2 µM; at human A3 receptors (setting [8]) it was 1.72 µM; on A2a receptors (setting [7]) it was 3 ± 0.7 µM.

For `CC(=O)Oc1cc(OC(C)=O)c2c(=O)c(OC(C)=O)c(-c3ccccc3)oc2c1` [Compound 34, 3,5,7-triacetoxyflavone], the results for the Ki on A1 receptors (setting [4]), at human A3 receptors (setting [8]) and at A2a receptors (setting [7]) were 11.6 ± 4.4 µM, 17.5 ± 2 µM and 56.5 ± 9.5 µM, respectively.

With `COc1ccc(-c2oc3cc(OC)cc(OC)c3c(=O)c2OC)c(OC)c1` [Compound 38, 2',3,4',5,7-pentamethyloxyflavone], the Ki is 27.6 ± 7.5 µM on A1 receptors (setting [4]), 2.65 µM on human A3 receptors (setting [8]) and 46.7 ± 2.7 µM on A2a receptors (setting [7]).

Take `O=c1cc(-c2ccccc2)oc2c1ccc1ccccc12` [Compound 43, α-naphthoflavone, reference compound]: the Ki at A1 receptors (setting [9]) turned out to be 0.786 µM; at A2a receptors (setting [11]), 1.32 ± 0.43 µM. For the same molecule, at human A3 receptors (setting [10]), the inhibition at 10 µM stood at 71 ± 2%.

Take `O=c1cc(-c2ccccc2)oc2ccc3ccccc3c12` [Compound 44, β-naphthoflavone, reference compound]: at A1 receptors (setting [9]), the Ki is 8.8 ± 3.6 µM. At human A3 receptors (setting [10]), the inhibition at 10 µM was 12 ± 1%. For the same molecule, the inhibition at 100 µM at A2a receptors (setting [12]) was less than 10%.

`CCn1c2c(c3cc4c(cc3c1=O)OCO4)C(=O)CCC2` [Compound 46, reference compound]: the Ki was found to be 7.59 ± 2.14 µM on A1 receptors (setting [9]) and 6.98 ± 2.21 µM at A2a receptors (setting [11]). The inhibition at 100 µM on human A3 receptors (setting [10]) worked out at 19 ± 3%.

`COc1cc2c3c(c1)c1cc4c(cc1c(=O)n3CC2)OCO4` [Compound 47, oxogalanthine lactam, reference compound]: the Ki at A1 receptors (setting [9]) was determined as 5.55 ± 0.83 µM. The inhibition at 100 µM on human A3 receptors (setting [13]) and at A2a receptors (setting [12]) was less than 10% each time.

For the molecule `COC1C=CC23c4cc5c(cc4C[N+](C)(CC2OC(C)=O)C3C1)OCO5` (stereo not drawn) [Compound 48, acetylhaemanthine methiodide, reference compound], the Ki at A1 receptors (setting [9]) was 52.5 ± 3.7 µM. Further, the inhibition at 100 µM on human A3 receptors (setting [13]) and at A2a receptors (setting [12]) was less than 10% in each case.

Consider `Oc1cc2c(cc1O)[C@@H]1c3ccc(O)c(O)c3OC[C@]1(O)C2` [Compound 50, hematoxylin, reference compound], for which, on A1 receptors (setting [9]), the Ki worked out at 3.1 ± 0.6 µM. In addition, the inhibition at 100 µM is less than 10% at human A3 receptors (setting [13]) and 28 ± 2% on A2a receptors (Table 7, read-out: % of specific binding displaced rA2A).

Take `COc1cc2c(c(O)c1OC)c(=O)c1ccccc1n2C` [Compound 51, 1-hydroxy-2,3-dimethoxy-10-methyl-9(10H)-acridinone, reference compound]: the values for the Ki at A1 receptors (setting [9]) and on A2a receptors (setting [11]) were 12.7 ± 1.2 µM and 6.47 ± 1.9 µM, respectively. Moreover, the inhibition at 100 µM at human A3 receptors (setting [10]) is 63 ± 7%.

Take `CCOC(=O)C1=C(C)NC(C)=C(C(=O)OC)C1C#Cc1ccccc1` (stereo not drawn) [Compound 76]: the Ki at A1 receptors (Table 9, [3H]PIA, rat brain membranes, read-out: Ki rA1) is 5.39 ± 0.33 µM; at human A3 receptors (Table 9, HEK membranes, read-out: Ki hA3), 0.94 ± 0.7 µM; on A2a receptors (Table 9, [3H]CGS 21680, rat striatal membranes, read-out: Ki rA2A), 38.3 ± 7.9 µM. For the same molecule, the “greater affinity to A1 than A2a adenosine receptors” value on A1 receptors (selectivity in words) is “greater affinity to A1 adenosine receptors than A2a receptors”. For the same molecule, the “greater affinity for A3 than A1 or A2a adenosine receptors” value on human A3 receptors (selectivity in words) is listed as “greater affinity for A3 adenosine receptors than A1 or A2a adenosine receptors”.

Take `CCOC(=O)c1c(C)nc(C)c(C(=O)OC)c1C` [Compound 80]: the Ki came out at 6.95 ± 2.66 µM on A1 receptors (Table 10, [3H]PIA, rat brain membranes, read-out: Ki rA1); 29.5 ± 2.1 µM at human A3 receptors (Table 10, HEK membranes, read-out: Ki hA3); 8.96 ± 0.93 µM at A2a receptors (Table 10, [3H]CGS 21680, rat striatal membranes, read-out: Ki rA2a).

As to `COC(=O)c1c(C)nc(C)c(C(=O)OC)c1-c1ccccc1[N+](=O)[O-]` [Compound 82, reference compound], the inhibition at 100 µM was less than 10% at A1 receptors (Table 10); less than 10% at human A3 receptors (Table 10, read-out: displacement of specific binding hA3); less than 10% at A2a receptors (Table 10, read-out: displacement of specific binding rA2a).

In the case of `CCC(=O)Nc1nc2ccc(Cl)cc2c2nc(-c3ccco3)nn12` [Compound 146, 9-Chloro-2-(2-furyl)-5-propionylamino[1,2,4]triazolo[1,5-c]quinazoline], the Ki at A1 receptors (Table 15, [3H]PIA, rat brain membranes, read-out: Ki rA1) was determined as 0.283 ± 0.042 µM; at human A3 receptors (Table 15, HEK membranes, read-out: Ki hA3) it was 0.00766 ± 0.00303 µM; on A2a receptors (Table 15, [3H]CGS 21680, rat striatal membranes, read-out: Ki rA2A) it was 0.106 ± 0.03 µM. The rA1/hA3 on human A3 receptors (Table 15, ratio of Ki) was found to be 40. Further, the rA2A/hA1 on human A3 receptors (Table 15, ratio of Ki) turned out to be 14.
